Drawing on US8598158B2, “Fused tricyclic compounds for the treatment of inflammatory disorders” (Merck Sharp & Dohme Corp., priority 2009, dated 2013), this text covers IC50 for 15 molecules.

For one test, the target named is MK2 kinase (Homo sapiens, UniProt P49137). As to the kind of experiment: bMK2 IMAP assay.
Chain of MK2 kinase (P49137 whole entry): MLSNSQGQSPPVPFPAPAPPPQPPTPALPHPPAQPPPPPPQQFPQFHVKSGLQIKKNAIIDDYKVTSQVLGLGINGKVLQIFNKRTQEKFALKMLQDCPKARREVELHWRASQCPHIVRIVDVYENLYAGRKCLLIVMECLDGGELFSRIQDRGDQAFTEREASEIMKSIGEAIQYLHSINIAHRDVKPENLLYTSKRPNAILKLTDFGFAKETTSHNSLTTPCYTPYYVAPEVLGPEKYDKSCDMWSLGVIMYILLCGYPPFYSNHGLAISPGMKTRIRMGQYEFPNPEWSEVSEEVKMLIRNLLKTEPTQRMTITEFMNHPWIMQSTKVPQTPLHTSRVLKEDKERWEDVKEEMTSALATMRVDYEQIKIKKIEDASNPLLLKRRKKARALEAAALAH
Conditions: not given
For orientation: IC50 means the concentration that inhibits the measured activity by half. Read a high IC50 as weaker potency. In the case of `CN1CCN(c2ccc3c(c2)Cc2cc(-c4ccc(Cl)cc4)oc2C(=O)N3Cc2ccccc2-c2cccnc2)CC1` [Compound 6], the IC50 was 10 to 100 nM.
On the same count and under the same terms, for `Nc1ccc(-c2ccccc2CN2C(=O)c3oc(-c4ccc(Cl)cc4)cc3Cc3cc(N4CCNCC4)ccc32)cn1` [Compound 11] the value was 10 to 100 nM.
`COCN1C(=O)c2oc(-c3ccc(C#N)cc3)cc2Cc2cc(N3CCNCC3)ccc21` [Compound 13]: the IC50 lay in the range of 1 to 10 nM.
The same measure, in the same setting: next, `O=C1c2oc(-c3ccc(Cl)cc3)cc2Cc2cc(C3CCNCC3)ccc2N1Cc1ccccc1-c1ccccc1` [Compound 16]: 100 to 1000 nM; `COc1ccc(-c2ccccc2CN2C(=O)c3oc(-c4ccc(Cl)cc4)cc3Cc3cc(N4CCNCC4)ccc32)cn1` [Compound 17]: 10 to 100 nM; `O=C1Nc2ccc(C3CCNCC3)cc2Cc2cc(-c3ccccc3)oc21` [Compound 18]: 100 to 1000 nM.
Take `O=C1c2oc(-c3ccccc3)cc2Cc2cc(C3CCNCC3)ccc2N1Cc1ccccc1-c1ccccc1` [Compound 20]: the IC50 lay in the range of 1000 to 10000 nM.
Same read-out and setting: for `COc1ccncc1-c1ccccc1CN1C(=O)c2oc(-c3ccc(Cl)cc3)cc2Cc2cc(N3CCNCC3)ccc21` [Compound 21] the value was 10 to 100 nM; for `COc1ncc(-c2ccccc2CN2C(=O)c3oc(-c4ccc(Cl)cc4)cc3Cc3cc(N4CCNCC4)ccc32)cn1` [Compound 22], 10 to 100 nM; for `O=C1Nc2ccc(N3CCNCC3)cc2Cc2cc(-c3ccc(Cl)cc3)sc21` [Compound 23], 1000 to 10000 nM.
Still for that read-out and setting: for `O=C1c2sc(-c3ccc(Cl)cc3)cc2Cc2cc(N3CCNCC3)ccc2N1Cc1ccccn1` [Compound 24] the value was 1000 to 10000 nM; for `N#Cc1ccc(-c2cc3c(s2)C(=O)Nc2ccc(N4CCNCC4)cc2C3)cc1` [Compound 25], 1000 to 10000 nM.
The same measure, in the same setting: next, `N#Cc1ccc(-c2cc3c(s2)C(=O)N(Cc2ccccn2)c2ccc(N4CCNCC4)cc2C3)cc1` [Compound 26]: 1000 to 10000 nM; `N#Cc1ccc(-c2cc3c(s2)C(=O)N(Cc2ccccc2-c2cncnc2)c2ccc(N4CCNCC4)cc2C3)cc1` [Compound 27]: 100 to 1000 nM.

The same test, now with this note: IC50 Value, IMAP fluorescence polarization; 100 μM ATP, 50 pM MK2, 100 nM TAMRA peptide substrate.
Regarding `O=C1c2oc(-c3ccc(Cl)cc3)cc2Cc2cc(N3CCNCC3)ccc2N1Cc1ccccc1-c1cccnc1` [Compound 5], the IC50 lay within 10 to 100 nM.

The same test, now with this note: IC50 values, IMAP fluorescence polarization; 100 μM ATP, 50 pM MK2, 100 nM TAMRA peptide substrate.
As for `O=C1c2oc(-c3ccc(Cl)cc3)cc2Cc2cc(N3CCNCC3)ccc2N1Cc1ccccc1-c1cccnc1` [Compound 5], the IC50 is 38.3 nM.
